Literature values as cited in EP1750675B1, “STABLE ORAL PHARMACEUTICAL COMPOSITIONS OF BUP[…] SALT THEREOF” (Galephar M/F, priority 2004, dated 2005).
Counter-ions that a name gives are not always drawn. Like-named read-outs stand apart in the source and are kept apart here.

Legend:
[1] = opioid agonist/antagonist
[2] = 20°C

Row | Compound | potency relative to morphine [1] | solubility ([2]; in cyclohexane) | solubility ([2]; in ethanol) | solubility ([2]; in glacial acetic acid) | solubility ([2]; in water) | stability (at high temperatures (up to 120°C)) | stability (in acid and alkaline conditions) | stability (in neutral solutions (pH 5-7))
1 | CO[C@]12CC[C@@]3(C[C@@H]1[C@](C)(O)C(C)(C)C)[C@H]1Cc4ccc(O)c5c4[C@@]3(CCN1CC1CC1)[C@H]2O5 [Buprenorphine] | about forty times as potent as morphine | – | – | – | – | – | – | –
2 | CO[C@]12CC[C@@]3(C[C@@H]1[C@](C)(O)C(C)(C)C)[C@H]1Cc4ccc(O)c5c4[C@@]3(CCN1CC1CC1)[C@H]2O5 [buprenorphine hydrochloride, Buprenorphine hydrochloride] | – | ~0.02 mg/mL | ~42 mg/mL | more than 500 mg/ml | about 20 mg/ml | stable | significant degradation | stable
